Source: patent US20230348424A1, “HETEROCYCLIC COMPOUNDS AND METHODS OF USE” (Schrödinger, Inc., priority 2022, published 2023)

Assays:
[1] = biological target: SOS1:KRAS (G12C) interaction (Homo sapiens (Human), UniProt Q07889); test: SOS1 KRas(G12C) FRET Assay; format: binding; details: 0.5 nM His10-SOS1 (res. 564-1049), 2.5 nM GST-KRAS G12C (res. 1-169), 2 hrs at RT
How it was run: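 GST-KRAS G12C (res. 1-169) at 2.5 nM and His10-SOS1 (res. 564-1049) at 0.5 nM, final, in PBS with 0.1% BSA, 5 mM MgCl2, 100 mM KF, 5 mM DTT and 0.5% DMSO. After 2 h at RT, FRET read at 665/615 nm and normalized to DMSO and no-SOS1 controls. IC50 by non-linear regression.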

human SOS1 = human SOS1 (Homo sapiens (Human), UniProt Q07889); test: Surface Plasmon Resonance (SPR) SOS1 Binding Assay; details: biotinylated SOS1 (res. 564-1049), Biacore 8K, 25° C., kinetic or steady state fit, 1:1 binding; read-out: hSOS1 KD
Chain of human SOS1 (Q07889 564-1049): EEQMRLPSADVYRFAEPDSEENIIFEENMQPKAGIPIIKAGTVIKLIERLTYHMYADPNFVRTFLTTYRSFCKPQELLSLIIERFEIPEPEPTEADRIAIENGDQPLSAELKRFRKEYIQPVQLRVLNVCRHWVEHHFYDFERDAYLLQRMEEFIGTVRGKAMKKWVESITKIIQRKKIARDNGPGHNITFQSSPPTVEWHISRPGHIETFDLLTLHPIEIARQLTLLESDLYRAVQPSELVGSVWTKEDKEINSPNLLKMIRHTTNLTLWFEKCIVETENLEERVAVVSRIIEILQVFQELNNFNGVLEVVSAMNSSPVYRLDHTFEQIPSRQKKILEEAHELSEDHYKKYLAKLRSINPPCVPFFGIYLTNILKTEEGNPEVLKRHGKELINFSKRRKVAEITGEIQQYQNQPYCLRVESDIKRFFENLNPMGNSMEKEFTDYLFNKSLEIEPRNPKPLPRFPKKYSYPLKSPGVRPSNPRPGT
How it was run: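 Biotinylated Avi-tagged human SOS1 (res. 564-1049) captured on streptavidin chip (~3,000 RU); compounds injected 60 s, dissociation 600 s, at 25° C in Tris pH 8.0 buffer with 5% DMSO. Reference- and blank-subtracted; KD from kinetic or steady-state 1:1 binding fit.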

Chain of SOS1:KRAS (G12C) interaction (Q07889 564-1049, stated change not applied): as the sequence (Q07889 564-1049) above

IC50 [1]	Kd (human SOS1)	Compound
45 nM	73 nM	C[C@@H](NC(=O)c1cn([C@@H]2CCC2(F)F)c(=O)cc1NCC1(F)CN(C)C1)c1cccc(C(F)F)c1F [Example 147, 1-((R)-2,2-difluorocyclobutyl)-N-((R)-1-(3-(difluoromethyl)-2-fluorophenyl)ethyl)-4-(((3-fluoro-1-methylazetidin-3-yl)methyl)amino)-6-oxo-1,6-dihydropyridine-3-carboxamide]
17.4 nM	9 nM	C[C@@H](NC(=O)c1cn(C2CCOC(C)(C)C2)c(=O)cc1N[C@H]1[C@@H]2CN(C)C[C@@H]21)c1cccc(C(F)F)c1F (stereo partly drawn) [Example 122, N-((R)-1-(3-(difluoromethyl)-2-fluorophenyl)ethyl)-1-(2,2-dimethyltetrahydro-2H-pyran-4-yl)-4-(((1R,5S,6s)-3-methyl-3-azabicyclo[3.1.0]hexan-6-yl)amino)-6-oxo-1,6-dihydropyridine-3-carboxamide]
3.8 nM	3 nM	C[C@@H](NC(=O)c1cn(C23CC(F)(C2)C3)c(=O)cc1N[C@@H]1CCN(C)C[C@@H]1F)c1cccc(C(F)F)c1F [Example 143, N-((R)-1-(3-(difluoromethyl)-2-fluorophenyl)ethyl)-4-(((3S,4R)-3-fluoro-1-methylpiperidin-4-yl)amino)-1-(3-fluorobicyclo[1.1.1]pentan-1-yl)-6-oxo-1,6-dihydropyridine-3-carboxamide]
26.2 nM	17 nM	C[C@@H](NC(=O)c1cn([C@H]2C[C@@H]2C(F)(F)F)c(=O)cc1N[C@H]1[C@@H]2CN(C)C[C@@H]21)c1cccc(C(F)F)c1F (single isomer, unassigned) [Example 111]
3 nM	3 nM	C[C@@H](NC(=O)c1cn(C2CC3(C2)CC(F)(F)C3)c(=O)cc1N[C@H]1CCN(C)C[C@H]1F)c1cccc(C(F)F)c1F [Example 127, N-((R)-1-(3-(difluoromethyl)-2-fluorophenyl)ethyl)-1-(6,6-difluorospiro[3 .3]heptan-2-yl)-4-(((3R,4S)-3-fluoro-1-methylpiperidin-4-yl)amino)-6-oxo-1,6-dihydropyridine-3-carboxamide]
21.1 nM	13 nM	C[C@@H](NC(=O)c1cn([C@@H]2C[C@H]2C(F)F)c(=O)cc1N[C@H]1[C@@H]2CN(C)C[C@@H]21)c1cccc(C(F)F)c1F [Example 114, N-((R)-1-(3-(difluoromethyl)-2-fluorophenyl)ethyl)-1-((1R,2R)-2-(difluoromethyl)cyclopropyl)-4-(((1R,5S,6s)-3-methyl-3-azabicyclo[3.1.0]hexan-6-yl)amino)-6-oxo-1,6-dihydropyridine-3-carboxamide]
8.5 nM	6 nM	C[C@@H](NC(=O)c1cn([C@H]2CC23CCC3)c(=O)cc1N[C@H]1[C@@H]2CN(C)C[C@@H]21)c1cccc(C(F)F)c1F (single isomer, unassigned) [Example 117]
19.7 nM	12 nM	C[C@@H](NC(=O)c1cn(C2(C(F)(F)F)CC2)c(=O)cc1N[C@@H]1[C@@H]2CC[C@H]1CN(C)C2)c1cccc(C(F)F)c1F (single isomer, unassigned) [Example 138]
6 nM	3 nM	C[C@@H](NC(=O)c1cn(C23CC(F)(C2)C3)c(=O)cc1NC1[C@@H]2CC[C@H]1CN(C)C2)c1cccc(C(F)F)c1F (stereo partly drawn) [Example 136, N-((R)-1-(3-(difluoromethyl)-2-fluorophenyl)ethyl)-1-(3-fluorobicyclo[1.1.1]pentan-1-yl)-4-(((1R,SS,8s)-3-methyl-3-azabicyclo[3.2.1]octan-8-yl)amino)-6-oxo-1,6-dihydropyridine-3-carboxamide]
47.3 nM	12 nM	C[C@@H](NC(=O)c1cn([C@@]2(C)CCOC2)c(=O)cc1N[C@H]1[C@@H]2CN(C)C[C@@H]21)c1cccc(C(F)F)c1F (single isomer, unassigned) [Example 151]

The next lines start with the compound.

Compound	IC50 [1]	Kd (human SOS1)
CO[C@H]1CN(C)CC[C@@H]1Nc1cc(=O)n(C2CCOCC2)cc1C(=O)N[C@H](C)c1cccc(C(F)(F)F)c1C (single isomer, unassigned) [Example 25]	71.3 nM	45 nM
COC1(CNc2cc(=O)n(C3CCOCC3)cc2C(=O)N[C@H](C)c2cccc(C(F)(F)F)c2C)CN(C)C1 [Example 29, (R)-4-(((3-methoxy-1-methylazetidin-3-yl)methyl)amino)-N-(1-(2-methyl-3-(trifluoromethyl)phenyl)ethyl)-6-oxo-1-(tetrahydro-2H-pyran-4-yl)-1,6-dihydropyridine-3-carboxamide]	19.1 nM	11 nM
C[C@@H](NC(=O)c1cn([C@@H]2C[C@H]2C2CC2)c(=O)cc1NC1CCN(C)CC1)c1cccc(C(F)F)c1F (single isomer, unassigned) [Example 74]	4.6 nM	2 nM
Cc1c([C@@H](C)NC(=O)c2cn(C3CCOCC3)c(=O)cc2N[C@@H]2CCCN(C)C2)cccc1C(F)(F)F [Example 5, N-((R)-1-(2-methyl-3-(trifluoromethyl)phenyl)ethyl)-4-(((R)-1-methylpiperidin-3-yl)amino)-6-oxo-1-(tetrahydro-2H-pyran-4-yl)-1,6-dihydropyridine-3-carboxamide]	35.5 nM	20 nM
C[C@@H](NC(=O)c1cn([C@@H]2CCC2(F)F)c(=O)cc1N[C@H]1[C@@H]2CN(C)C[C@@H]21)c1cccc(C(F)F)c1F (single isomer, unassigned) [Example 103]	5.7 nM	3 nM
Cc1c([C@@H](C)NC(=O)c2cn(C3CCOCC3)c(=O)cc2N[C@@H]2CCN(C)C2)cccc1C(F)(F)F [Example 3, N-((R)-1-(2-methyl-3-(trifluoromethyl)phenyl)ethyl)-4-(((R)-1-methylpyrrolidin-3-yl)amino)-6-oxo-1-(tetrahydro-2H-pyran-4-yl)-1,6-dihydropyridine-3-carboxamide]	41.2 nM	16 nM
C[C@@H](NC(=O)c1cn(C2(C(F)F)CC2)c(=O)cc1N[C@H](C)c1cncn1C)c1cccc(C(F)F)c1F [Example 88, N-((R)-1-(3-(difluoromethyl)-2-fluorophenyl)ethyl)-1(1-(difluoromethyl)cyclopropyl)-4(((R)-1-(1-methyl-1H-imidazol-5-yl)ethyl)amino)-6-oxo-1,6-dihydropyridine-3-carboxamide]	87.3 nM	96 nM
C[C@@H](NC(=O)c1cn([C@H]2C[C@H](F)C2)c(=O)cc1N[C@H]1[C@@H]2CN(C)C[C@@H]21)c1cccc(C(F)F)c1F [Example 97, N-((R)-1-(3-(difluoromethyl)-2-fluorophenyl)ethyl)-1-((1r,3R)-3-fluorocyclobutyl)-4-(((1R,5S,6s)-3-methyl-3-azabicyclo[3.1.0]hexan-6-yl)amino)-6-oxo-1,6-dihydropyridine-3-carboxamide]	16.7 nM	7 nM
C[C@@H](NC(=O)c1cn([C@@H]2CC2(C)C)c(=O)cc1N[C@H]1[C@@H]2CN(C)C[C@@H]21)c1cccc(C(F)F)c1F (single isomer, unassigned) [Example 94]	13.4 nM	7 nM
Cc1c([C@@H](C)NC(=O)c2cn(C3CCOCC3)c(=O)cc2NC2CC3(C2)CN(C)C3)cccc1C(F)(F)F [Example 21, (R)-4-((2-methyl-2-azaspiro[3.3]heptan-6-yl)amino)-N-(1-(2-methyl-3-(trifluoromethyl)phenyl)ethyl)-6-oxo-1-(tetrahydro-2H-pyran-4-yl)-1,6-dihydropyridine-3-carboxamide]	53.7 nM	17 nM
